Data from patent US20140024663A1, “ATB(0,+) AMINO ACID TRANSPORTER AS A DRUG TARGET FOR TREATMENT OF ESTROGEN RECEPTOR-POSITIVE BREAST CANCER” (GEORGIA HEALTH SCIENCES UNIVERSITY RESEARCH INSTITUTE, INC., priority 2012, published 2014).

Key:
[1] = test system: MCF7 cells; assay: Western blot of lamin A degradation product (caspase-6 substrate); type: cell-based, human; conditions: MCF7, α-MT 2.5 mM, 24, 48 or 72 h
Method: (§1) FIGS. 9A to 9D. Influence of α-MT on mTOR activity In FIG. 9A, MCF7 and MB231 cells were treated without or with α-MT (2.5 mM) for 24 h, 48 h, or 72 h, and then the cell lysates were used for western blot. Influence of α-MT with or without 3-MA on cell death. In FIG. 9B, MCF7, MB231, and MCF10A cells were treated for 48 h without or with α-MT (2.5 mM), 3-MA (10 mM), or α-MT (2.5 mM) plus 3-MA (10 mM), and then analyzed for cell death by propidium iodide (PI) staining and FACS-based cell cycle analysis. In FIG. 9C, MCF7 cells were treated for 48 h without or with α-MT (2.5 mM), 3-MA (10 mM), or α-MT (2.5 mM) plus 3-MA (10 mM), and then analyzed for apoptotic cell death by annexin V labeling. In FIG. 9D, MCF7 and MB231 cells were treated without or with 2.5 mM α-MT for 24 h, 48 h, or 72 h. Cell lysates were then used for western blot analysis of lamin A degradation product using an antibody that recognizes specifically the proteolytic cleavage product. β-Actin was used as an internal control.

[2] = test system: MB231 cells; assay: as above; type: cell-based, human; conditions: SLC6A14-negative MB231 cells, α-MT 2.5 mM, identical conditions
Method: as §1

[3] = test system: MB231 cells; assay: Cell death by propidium iodide staining and FACS cell cycle analysis; type: cell-based, human; conditions: MB231, α-MT 2.5 mM and 3-MA 10 mM, either alone or together, 48 h
Method: as §1
(§2) Apoptosis assay. Fluorescence-activated cell sorting (FACS) was used to monitor cell death. MCF7 cells were treated with or without α-MT, 3-MA, or α-MT plus 3-MA. Control and treated cells were then fixed in 50% ethanol, treated with 0.1% sodium citrate, 1 mg/ml RNase A, and 50 μg/ml propidium iodide, and then subjected to FACS analysis (FACS Caliber, Becton Dickinson). FITC-labeled annexin V was used to differentiate apoptotic cell death from necrotic cell death.

[4] = test system: MCF10A cells; assay: as above; type: cell-based, human; conditions: α-MT 2.5 mM and 3-MA 10 mM, either alone or together, 48 h
Method: as §1, §2

[5] = test system: ZR75.1 cells; assay: QCM cell invasion assay; type: cell-based, human; conditions: ZR75.1, α-MT 2.5 mM, p>0.05
Method: (§3) Migration and invasion assays. The influence of α-MT on cell migration and invasion was determined with ZR75.1 cells. The migration of these cells toward fetal bovine serum was measured using the QCM™ cell migration assay kit (Millipore) according to manufacturer's instructions. Serum-starved ZR75.1 cells were allowed to migrate for 48 h in the presence/absence of α-MT (2.5 mM). After removing the cells on the top of the membrane filter, the inserts were stained with 0.1% crystal violet, washed and dried. The crystal violet dye retained on the filters, representing the cells that migrated to the underside of the membrane filter, was extracted with acetic acid. The absorbance of the extract was measured at 570 nm. Cell invasion assay was performed similarly using the QCM™ cell invasion assay kit (Millipore). The inserts used in this assay were coated with ECMATRIX™, representing extracellular matrix.

[6] = Measurement of α-MT in mouse plasma by HPLC; type: in vivo, Balb/c nude mice; conditions: mice, two weeks of administration in drinking water (2 mg/ml)
Method: FIGS. 10A to 10D. In vivo efficacy of α-MT in the treatment of ER-positive breast cancer. ZR75.1 (FIG. 10A), MCF7 (FIG. 10B), and MB-231 (FIG. 10C) cells were injected subcutaneously (sc) into Balb/c nude mice (10×10^6 cells per injection site). For MCF7 cells, slow-releasing estrogen pellets were implanted to support the tumor growth. For each cell line, the control group received water with sucrose and the treatment group received α-MT (2 mg/ml) in water with sucrose. Tumor size was measured periodically. NS, not statistically significant (p>0.05); *, p<0.005; two-tailed unpaired Student's t test. In FIG. 10D, Balb/c nude mice were divided into two groups; the control group received water with sucrose and the treatment group received α-MT (2 mg/ml) in water with sucrose for 2 weeks. Mice were then bled and α-MT in plasma was determined by HPLC.
Measurement of α-MT in mouse plasma. Balb/c nude mice were divided into two groups; the control group received water with sucrose and the treatment group received α-MT (2 mg/ml) in water with sucrose for 2 weeks. Mice were then bled and α-MT in plasma was determined by HPLC as described by Laich et al (Laich et al., 2002, Clin Chem; 48:579-581).

[7] = test system: ZR75.1 cells; assay: QCM cell migration assay; type: cell-based, human; conditions: ZR75.1, α-MT 2.5 mM, 48 h, p>0.05
Method: as §3

Which “apoptotic cell death shown by Lamin A cleavage” value [1] does the source give for `CC(N)(Cc1c[nH]c2ccccc12)C(=O)O` (racemic) [α-MT, α-methyl-DL-tryptophan] here?
Its value is “cleavage of Lamin A”.

What about the “apoptosis (Lamin A cleavage)” value [2] of the same molecule?
The value was “no evidence of apoptosis”.

And the “effect on cell death” value [3]?
The value was “very little, if any, effect”.

What about the “effect on cell death” value [4] of the same molecule?
The value was “very little, if any, effect”.

And the “invasion in α-MT-treated cells” value [5]?
Its value is 95±14 % of control.

And the plasma concentration of α-MT [6]?
Its plasma concentration of α-MT is 8.5 ± 0.5 µM.

What about the “migration in α-MT-treated cells” value [7] of the same molecule?
Its value is 87±7 % of control.
